Experimental data from PubChem BioAssay AID256 (DTP/NCI, 2004).
Values joined by “and” are separate entries in the source; they are usually repeats but may differ in a detail not shown here. Equal entries are not always repeated. Toxic doses and inconclusive results are not listed. How the source made its calls: active means survival T/C of 150% or more; inactive means T/C below 125% in these data.

Test system: CD2F1 mice, L1210 leukemia ip, survival T/C
Test: NCI In Vivo Anticancer Drug Screen. Data for tumor model L1210 Leukemia (intraperitoneal) in CD2F1 (CDF1) mice
Conditions: endpoint: mean survival time, higher = longer survival
How it was run: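 Each value reflects a quotient of treated over vehicle control outcomes in mice with a transplanted tumor.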

[1] = dose: 100.0 mg/kg/injection, schedule: Q04DX003 (ip), vehicle: saline with Tween-80
[2] = dose: 200.0 mg/kg/injection, schedule: Q04DX003 (ip), vehicle: saline with Tween-80
[3] = dose: 400.0 mg/kg/injection, schedule: Q04DX003 (ip), vehicle: saline with Tween-80
[4] = dose: 50.0 mg/kg/injection, schedule: Q01DX009 (ip), vehicle: saline with Tween-80
[5] = dose: 100.0 mg/kg/injection, schedule: Q01DX009 (ip), vehicle: saline with Tween-80
[6] = dose: 200.0 mg/kg/injection, schedule: Q01DX009 (ip), vehicle: saline with Tween-80
[7] = dose: 400.0 mg/kg/injection, schedule: Q01DX009 (ip), vehicle: saline with Tween-80

Measured: T/C

[Cl][Pt+2][Cl].[NH-]c1ccc(F)cc1.[NH-]c1ccc(F)cc1
inactive: dose: 3.13 mg/kg/injection, schedule: Q04DX003 (ip), vehicle: distilled water + Tween-80 102 % of control | dose: 6.25 mg/kg/injection, schedule: Q04DX003 (ip), vehicle: distilled water + Tween-80 104 % of control | dose: 12.5 mg/kg/injection, schedule: Q04DX003 (ip), vehicle: distilled water + Tween-80 102 % of control | dose: 25.0 mg/kg/injection, schedule: Q04DX003 (ip), vehicle: distilled water + Tween-80 108 % of control | dose: 50.0 mg/kg/injection, schedule: Q04DX003 (ip), vehicle: distilled water + Tween-80 108 % of control | dose: 100.0 mg/kg/injection, schedule: Q04DX003 (ip), vehicle: distilled water + Tween-80 93 % of control

O=C1CSC2(CCN(Cc3ccccc3)CC2)O1
inactive: dose: 100.0 mg/kg/injection, schedule: Q01DX001 (ip), vehicle: saline 98 % of control | dose: 200.0 mg/kg/injection, schedule: Q01DX001 (ip), vehicle: saline 102 % of control | dose: 400.0 mg/kg/injection, schedule: Q01DX001 (ip), vehicle: saline 95 % of control

C=CCN(CC=C)/N=N/c1nc[nH]c1C(N)=O
inactive: [1] 98 % of control | [2] 105 % of control | [3] 100 % of control

O=C1N(Cl)C2C(N1Cl)N(Cl)C(=O)N2Cl (stereo not given)
inactive: dose: 25.0 mg/kg/injection, schedule: Q04DX003 (ip), vehicle: saline with Tween-80 98 % of control | dose: 50.0 mg/kg/injection, schedule: Q04DX003 (ip), vehicle: saline with Tween-80 104 % of control | [1] 89 % of control

C[N+](C)(C)CSSC[N+](C)(C)C
inactive: dose: 12.5 mg/kg/injection, schedule: Q04DX002 (ip), vehicle: saline 96 % of control | dose: 25.0 mg/kg/injection, schedule: Q04DX002 (ip), vehicle: saline 96 % of control | dose: 50.0 mg/kg/injection, schedule: Q04DX002 (ip), vehicle: saline 103 % of control

CN(C)CCOc1ccc2c(c1)C/C(=C/c1ncc([N+](=O)[O-])n1C)C2=O
inactive: dose: 6.25 mg/kg/injection, schedule: Q01DX009 (ip), vehicle: saline with Tween-80 96 % of control and 98 % of control | dose: 12.5 mg/kg/injection, schedule: Q01DX009 (ip), vehicle: saline with Tween-80 107 % of control | dose: 25.0 mg/kg/injection, schedule: Q01DX009 (ip), vehicle: saline with Tween-80 107 % of control and 108 % of control | [4] 117 % of control and 107 % of control | [5] 119 % of control and 104 % of control | [6] 111 % of control

N=C(Oc1ccccc1)C(Cl)(Cl)Cl
inactive: [4] 90 % of control | [5] 95 % of control | [6] 98 % of control

CCOC(=O)c1ccc(NC(N)=S)cc1
inactive: dose: 50.0 mg/kg/injection, schedule: Q01DX009 (ip), vehicle: other 98 % of control | dose: 100.0 mg/kg/injection, schedule: Q01DX009 (ip), vehicle: other 95 % of control | dose: 200.0 mg/kg/injection, schedule: Q01DX009 (ip), vehicle: other 95 % of control | dose: 400.0 mg/kg/injection, schedule: Q01DX009 (ip), vehicle: other 91 % of control

O=C1CSC(=S)N1c1cccc(C(F)(F)F)c1
inactive: [5] 97 % of control | [6] 112 % of control | [7] 101 % of control

C=C(C)C1Cc2c(ccc3c2OC2COc4cc(OC)c(OC)cc4C2C3=O)O1 (stereo not given)
inactive: [5] 92 % of control | [1] 103 % of control | [6] 93 % of control | [2] 101 % of control | [7] 94 % of control | [3] 97 % of control

Cc1nc(N)nc(N)n1
inactive: [1] 100 % of control | [2] 100 % of control | [3] 97 % of control

C#CCNC1=C(C)C(=O)C2=C(C1=O)[C@H](COC(N)=O)[C@]1(O)[C@H]3[C@@H](CN21)N3C (stereo not given in full)
inactive: dose: 1.5 mg/kg/injection, schedule: Q01DX001 (ip), vehicle: water 104 % of control | dose: 3.0 mg/kg/injection, schedule: Q01DX001 (ip), vehicle: water 102 % of control | dose: 6.0 mg/kg/injection, schedule: Q01DX001 (ip), vehicle: water 100 % of control | dose: 12.0 mg/kg/injection, schedule: Q01DX001 (ip), vehicle: water 110 % of control | dose: 24.0 mg/kg/injection, schedule: Q01DX001 (ip), vehicle: water 110 % of control

CCCCCCCCCCCCCCCC(=O)O[C@@]12C[C@@H](C)[C@@]3(O)[C@@H](C=C(CO)C[C@]4(O)C(=O)C(C)=C[C@@H]34)[C@@H]1C2(C)C
inactive: dose: 0.06 mg/kg/injection, schedule: Q01DX009 (ip), vehicle: other 98 % of control | dose: 0.12 mg/kg/injection, schedule: Q01DX009 (ip), vehicle: saline 103 % of control | dose: 0.13 mg/kg/injection, schedule: Q01DX009 (ip), vehicle: other 88 % of control | dose: 0.25 mg/kg/injection, schedule: Q01DX009 (ip), vehicle: other 94 % of control | dose: 0.25 mg/kg/injection, schedule: Q01DX009 (ip), vehicle: saline 102 % of control | dose: 0.5 mg/kg/injection, schedule: Q01DX009 (ip), vehicle: other 102 % of control | dose: 0.5 mg/kg/injection, schedule: Q01DX009 (ip), vehicle: saline 103 % of control | dose: 1.0 mg/kg/injection, schedule: Q01DX009 (ip), vehicle: saline 102 % of control

CCCCCCCCCCC(C(=O)OCC)P(=O)(OCC)OCC (stereo not given)
inactive: dose: 75.0 mg/kg/injection, schedule: Q01DX001 (ip), vehicle: saline 98 % of control | dose: 150.0 mg/kg/injection, schedule: Q01DX001 (ip), vehicle: saline 102 % of control | dose: 300.0 mg/kg/injection, schedule: Q01DX001 (ip), vehicle: saline 96 % of control

COC(=O)C1C2CC(OS(=O)(=O)c3ccc(C)cc3)C(C2)C1C(=O)OC (stereo not given)
inactive: dose: 100.0 mg/kg/injection, schedule: Q01DX001 (ip), vehicle: saline with Tween-80 93 % of control | [5] 98 % of control | dose: 200.0 mg/kg/injection, schedule: Q01DX001 (ip), vehicle: saline with Tween-80 95 % of control | [6] 91 % of control | dose: 400.0 mg/kg/injection, schedule: Q01DX001 (ip), vehicle: saline with Tween-80 92 % of control | [7] 95 % of control

NC(CSC1(c2ccccc2)c2ccccc2-c2ccccc21)C(=O)O (stereo not given)
inactive: dose: 25.0 mg/kg/injection, schedule: Q01DX009 (ip), vehicle: saline 96 % of control | dose: 50.0 mg/kg/injection, schedule: Q01DX009 (ip), vehicle: saline 102 % of control | dose: 100.0 mg/kg/injection, schedule: Q01DX009 (ip), vehicle: saline 100 % of control | dose: 200.0 mg/kg/injection, schedule: Q01DX009 (ip), vehicle: saline 100 % of control | dose: 400.0 mg/kg/injection, schedule: Q01DX009 (ip), vehicle: saline 110 % of control
